Data as given in patent publication US9278902B2, “Crystal form of prostaglandin analogue, and preparation method and use thereof” (Shanghai Techwell Biopharmaceutical Co., Ltd., priority 2012, dated 2016).
Values belong to the molecule of their own block, whether it stands above or below them.

Experiments:
[1] = Storage stability of crystalline form B by HPLC (0° C., 20° C., 40° C.); assay type: physicochemical
Protocol: (§1) Column: 4.6×250 mm 5 μm C18 column; flow rate: 2 ml/min; injection volume: 10 μl; column temperature: 35° C.; detection wavelength: 217 nm; mobile phase: acetonitrile/water/trifluoroacetic acid; Elution condition: water (60%): acetonitrile (40%): trifluoroacetic acid (0.1%); detection limit: 10 ng.
(§2) Compound I from example 2, example 3 and example 4 were obtained, and subjected to stability test at 40° C., respectively. […] Therefore, crystalline form B of compound I prepared by the method of the present invention has unique stability.

[2] = Stability test at 40° C., HPLC purity; assay type: physicochemical
Protocol: As used herein, “HPLC purity” refers to the percentage of the peak area of compound I obtained by area normalization method in the sum of all the peak area in HPLC detection applied to compound I, according to the obtained chromatogram.
as §1
The purity mentioned in the following Examples is HPLC purity.
as §2

[3] = cited from earlier work

Degradation on storage (HPLC) ([1]; stored at 0° C. for 12 months): did not degrade at all
Degradation on storage (HPLC) ([1]; stored at 20° C. for 6 months): did not degrade at all
Degradation on storage (HPLC) ([1]; stored at 40° C. for 2 months): did not degrade at all
SMILES: CCCCC[C@H](O)CC[C@@H]1[C@H]2Cc3cccc(OCC(=O)O)c3C[C@H]2C[C@H]1O [crystalline form B of compound I]

Purity at 0 day (40° C.) ([2]; stability test at 40° C., 0 day (start)): 99.90%
Purity at 10 day (40° C.) ([2]; stored at 40° C., 10 day): 99.91%
Purity at 30 day (40° C.) ([2]; stored at 40° C., 30 day): 99.89%
Purity at 90 day (40° C.) ([2]; stored at 40° C., 90 day): 99.88%
SMILES: CCCCC[C@H](O)CC[C@@H]1[C@H]2Cc3cccc(OCC(=O)O)c3C[C@H]2C[C@H]1O [Example 4]

SMILES: CCCCC[C@H](O)CC[C@@H]1[C@H]2Cc3cccc(OCC(=O)O)c3C[C@H]2C[C@H]1O [Treprostinil]
Stability under physiological conditions [3]: stable
